Patent US20230331674A1 (priority 2020, published 2023)

Tests used:
[1] = biological target: mAChE (murine acetylcholinesterase) (Mus musculus (Mouse), UniProt P21836); format: biochemical; settings: screening at 10 μM; n.i. = no inhibiton
Description: To determine the blank value (b), phosphate-buffered solution replaced the enzyme solution.

Plasma stability = format: in vitro ADME; settings: human, 37° C., 2 h incubation, read-out: In vitro half-life in human plasma
Description: Propoxycaine and propantheline were tested as reference compounds simultaneously in each assay. The incubation was performed in a 37° C. water bath for 2 h. An aliquot of the incubation mixture was transferred to acetonitrile at 0, 0.5, 1, 1.5 and 2 h, respectively. Samples were then mixed and centrifuged. Supernatants were used for HPLC-MS/MS analysis using selected reaction monitoring, and peak areas were recorded for each analyte. The HPLC conditions consisted of a binary LC pump with autosampler, a C18 column (2×20 mm), and gradient elution. The area of precursor compound remaining after each time points relative to the amount remaining at time zero, expressed as percent, is calculated. Subsequently, the half-life (t1/2) was estimated from the slope of the initial linear range of the logarithmic curve of the compound remaining (%) versus time, assuming first order kinetics.

[2] = test system: SH-SY5Y cells treated with Aβ(1-42); experiment: Neuroprotective effect against Aβ(1-42) cytotoxicity, propidium iodide flow cytometry; format: cell-based, human; settings: 5 μM Aβ(1-42), 48 h
Description: SH—SY5Y cells were seeded into a 24-well culture plate (1.2×10^5/well) and next day, treated as described above. After 48 h treatment, cells were washed with pre-warmed PBS and further stained with PI solution (30 μM) for 15 min at 37° C. Cells were then analyzed for cytotoxicity by flow cytometry on FACS Calibur (BD Bioscience, San Jose, CA, USA). The percentage of PI positive cells (PI^pos) was evaluated using FlowJo software (Ashland, OR, USA) and results are presented as a relative fold increase of PI^pos corresponding vehicle treatment (DMSO control).

[3] = Metabolic stability in cryopreserved hepatocytes; format: in vitro ADME; settings: both sexes, pH 7.3, human hepatocytes
Description: Cryopreserved hepatocytes (mixed gender and pool of 10 or more) were thawed, washed, and resuspended in Krebs-Heinslet buffer (pH 7.3). […] The reaction was stopped by adding acetonitrile into the incubation mixture. Samples were then mixed, transferred completely to another 96-well plate, and centrifuged. Supernatants were used for HPLC-MS/MS analysis. As reference substances, four compounds were tested in each assay. Propranolol is relatively stable, whereas flurazepam, naloxone and 7-hydroxy-4-trifluoromethylcoumarin (HFC) are readily metabolized in human hepatocytes. In the HPLC-MS/MS analysis peak areas corresponding to the test compounds were recorded. Metabolic stability, expressed as percentage of the parent compound remaining, was calculated by comparing the peak area of the compound at the time point relative to that at time 0. The half-life (t1/2) was estimated from the slope of the initial linear range of the logarithmic curve of the compound remaining (%) versus time, assuming first order kinetics. The apparent intrinsic clearance (Clint in μL/min/million cells) was calculated from the half-life according to the following formula:
Clint=0.693/(t1/2×million cells/μL) (5).

SH-SY5Y cells = experiment: Cell viability assay (MTS) in SH-SY5Y cells; settings: 48 h
Description: Prior to cell treatments, complete medium was replaced with reduced-serum medium (i.e., with 2% fetal bovine serum). (±)-N-((1-benzylpiperidin-3-yl)methyl)-N-(2-methoxyethyl)naphthalene-2-sulfonamide hydrochloride was prepared as a stock solution of 10 mM in DMSO and was used at concentrations of 1 μM to 100 μM.
SH—SY5Y cells were seeded in 96-well plates (2×10^4/well) and assessed in the MTS ([3-(4,5-dimethylthiazol-2-yl)-5-(3-carboxymethoxyphenyl)-2-(4-sulfophenyl)-2H-tetrazolium, inner salt) assay for their response to treatments with (±)-N-((1-benzylpiperidin-3-yl)methyl)-N-(2-methoxyethyl)naphthalene-2-sulfonamide hydrochloride. The cells were treated as described above, and cell viability was assessed after 48 h using the CellTiter 96 Aqueous One Solution Cell Proliferation Assay (Promega, Madison, WI, USA), according to the manufacturer instructions. Absorbance was measured with an automatic microplate reader (Tecan Safire2, Switzerland) at a wavelength of 492 nm. The data are presented as percentages of the control (DMSO).

[4] = Plasma protein binding, equilibrium dialysis; format: in vitro ADME; settings: pH 7.4, human plasma, 37° C.
Description: The equilibrium dialysis technique was used to separate the fraction of the bound to human plasma protein. The assay was performed in a 96-well format in a dialysis block constructed from Teflon to minimize the unspecific binding (Banker M. J. et al. J. Pharm. Sci. 2003, 92, 967-974). Plasma from human was used as the default protein containing matrix. […] Acebutolol, quinidine and warfarin were tested in each assay as reference compounds, which yield protein binding that represent low, medium and high bindings to human plasma proteins, respectively. The dialysate compartment was loaded with the phosphate buffered saline (PBS, pH 7.4), and the sample side was loaded with equal volume of the spiked protein matrix. The dialysis plate was then sealed and incubated at 37° C. for 4 h. A control sample (n=2) was prepared from the spiked protein matrix in the same manner as the assay sample (without dialysis). The control sample served as the basis for the recovery determination. After the incubation, samples were taken from each compartment, diluted with phosphate buffer followed by addition of acetonitrile and centrifugation. The supernatants were then used for HPLC-MS/MS analysis using selected reaction monitoring. […]
The recovery determination serves as an indicator of reliability of the calculated protein binding value. […]

mAChE (murine acetylcholinesterase), sequence (P21836 32-614): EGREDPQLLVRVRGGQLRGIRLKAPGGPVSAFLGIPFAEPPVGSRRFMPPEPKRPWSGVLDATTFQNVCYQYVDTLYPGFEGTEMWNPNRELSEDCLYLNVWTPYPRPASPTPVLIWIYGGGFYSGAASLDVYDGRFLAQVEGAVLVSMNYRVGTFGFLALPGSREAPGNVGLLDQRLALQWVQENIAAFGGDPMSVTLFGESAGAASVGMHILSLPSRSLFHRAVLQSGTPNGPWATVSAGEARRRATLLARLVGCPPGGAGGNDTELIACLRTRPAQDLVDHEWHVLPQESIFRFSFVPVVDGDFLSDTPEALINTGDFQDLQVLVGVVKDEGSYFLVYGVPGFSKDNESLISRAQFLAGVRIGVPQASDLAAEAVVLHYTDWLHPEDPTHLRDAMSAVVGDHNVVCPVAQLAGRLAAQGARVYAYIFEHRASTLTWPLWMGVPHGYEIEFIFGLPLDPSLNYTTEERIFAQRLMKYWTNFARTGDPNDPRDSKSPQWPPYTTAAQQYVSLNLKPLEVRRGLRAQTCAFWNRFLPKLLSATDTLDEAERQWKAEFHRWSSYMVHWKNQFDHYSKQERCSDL

COCCN(CC1CCCN(Cc2ccccc2)C1)S(=O)(=O)c1ccc2ccccc2c1 (racemic) [(±)-N-((1-benzylpiperidin-3-yl)methyl)-N-(2-methoxyethyl)naphthalene-2-sulfonamide]
IC50 + STD (μM) or % inhibition at 10 μM mAChE [1]: n.i. | half-life at 1 μM (Plasma stability): > 120 min | Neuroprotective effect against Aβ(1-42) toxicity ([2]; compound 1-10 μM): clear dose-response neuroprotective effect | Effect on Aβ(1-42)-induced cell death ([2]; compound at 10 μM): reversed Aβ(1-42)-induced cell death | half-life at 1 μM ([3]; 0.7 million viable cells per mL, read-out: In vitro half-life in cryopreserved hepatocytes): 54 min | hepatocyte CLint at 1 μM ([3]; read-out: Hepatocyte clearance (Clint)): 18.2 µL/min/1e6 cells | LD50 (SH-SY5Y cells): 31.40 µM | fraction unbound at 4 h, 10 μM [4]: 0.04
